Test results: article PMC11699025 (Natural Products and Bioprospecting, 2025)
Where “and” joins values, the source holds several entries; their conditions need not be identical. Identical values can stand only once.

Key:
Format in all cases: binding
SARS-CoV-2 PLpro Y268A = SARS-CoV-2 PLpro Y268A (Severe acute respiratory syndrome coronavirus 2, UniProt P0DTD1, Y1831A)
SARS-CoV-2 Mpro E288A = SARS-CoV-2 Mpro E288A (Severe acute respiratory syndrome coronavirus 2, UniProt P0DTD1, E3551A)
SARS-CoV-2 Mpro R4A = SARS-CoV-2 Mpro R4A (Severe acute respiratory syndrome coronavirus 2, UniProt P0DTD1, R3267A)
SARS-CoV-2 Mpro N142A = SARS-CoV-2 Mpro N142A (Severe acute respiratory syndrome coronavirus 2, UniProt P0DTD1, N3405A)
SARS-CoV-2 PLpro Y251A = SARS-CoV-2 PLpro Y251A (Severe acute respiratory syndrome coronavirus 2, UniProt P0DTD1, Y1814A)
SARS-CoV-2 Mpro F3A = SARS-CoV-2 Mpro F3A (Severe acute respiratory syndrome coronavirus 2, UniProt P0DTD1, F3266A)
SARS-CoV-2 PLpro T257A = SARS-CoV-2 PLpro T257A (Severe acute respiratory syndrome coronavirus 2, UniProt P0DTD1, T1820A)
SARS-CoV-2 PLpro Y273A = SARS-CoV-2 PLpro Y273A (Severe acute respiratory syndrome coronavirus 2, UniProt P0DTD1, Y1836A)
SARS-CoV-2 PLpro Y264A = SARS-CoV-2 PLpro Y264A (Severe acute respiratory syndrome coronavirus 2, UniProt P0DTD1, Y1827A)
SARS-CoV-2 PLpro D164A = SARS-CoV-2 PLpro D164A (Severe acute respiratory syndrome coronavirus 2, UniProt P0DTD1, D1727A)
SARS-CoV-2 PLpro K254A = SARS-CoV-2 PLpro K254A (Severe acute respiratory syndrome coronavirus 2, UniProt P0DTD1, K1817A)
SARS-CoV-2 Mpro F291A = SARS-CoV-2 Mpro F291A (Severe acute respiratory syndrome coronavirus 2, UniProt P0DTD1, F3554A)
SARS-CoV-2 PLpro R166A = SARS-CoV-2 PLpro R166A (Severe acute respiratory syndrome coronavirus 2, UniProt P0DTD1, R1729A)
SARS-CoV-2 Mpro K5A = SARS-CoV-2 Mpro K5A (Severe acute respiratory syndrome coronavirus 2, UniProt P0DTD1, K3268A)
SARS-CoV-2 PLpro V303A = SARS-CoV-2 PLpro V303A (Severe acute respiratory syndrome coronavirus 2, UniProt P0DTD1, V1866A)
SARS-CoV-2 PLpro L253A = SARS-CoV-2 PLpro L253A (Severe acute respiratory syndrome coronavirus 2, UniProt P0DTD1, L1816A)
SARS-CoV-2 Mpro Y126A = SARS-CoV-2 Mpro Y126A (Severe acute respiratory syndrome coronavirus 2, UniProt P0DTD1, Y3389A)
SARS-CoV-2 PLpro E252A = SARS-CoV-2 PLpro E252A (Severe acute respiratory syndrome coronavirus 2, UniProt P0DTD1, E1815A)
SARS-CoV-2 PLpro F258A = SARS-CoV-2 PLpro F258A (Severe acute respiratory syndrome coronavirus 2, UniProt P0DTD1, F1821A)

For `Cc1cc(O)c(O)c(Oc2cc(C)cc(O)c2Oc2cc(C)cc(O)c2O)c1` [Sydowiol B, sydowiol B], the Tm value (SARS-CoV-2 PLpro Y268A) was 50.46 ± 0.65 (3.82) ℃, the “△Tm” value (SARS-CoV-2 PLpro Y268A) was 50.46 ± 0.65 (3.82) ℃ and the Tm value (SARS-CoV-2 Mpro E288A) was 54.03 ± 0.10 (1.14) ℃ and 53.21 ± 0.11 (0.32) ℃. The “△Tm” value (SARS-CoV-2 Mpro E288A) was 54.03 ± 0.10 (1.14) ℃ and 53.21 ± 0.11 (0.32) ℃, the Tm value (SARS-CoV-2 Mpro R4A) was 54.54 ± 0.06 (0.84) ℃ and 54.25 ± 0.27 (0.55) ℃ and 54.16 ± 0.03 (0.46) ℃ and the “△Tm” value (SARS-CoV-2 Mpro R4A) was 54.54 ± 0.06 (0.84) ℃ and 54.25 ± 0.27 (0.55) ℃ and 54.16 ± 0.03 (0.46) ℃. For the same compound, the Tm value (SARS-CoV-2 Mpro N142A) was 58.18 ± 0.03 (5.56) ℃ and 57.22 ± 0.07 (4.60) ℃ and 56.43 ± 0.24 (3.81) ℃, the “△Tm” value (SARS-CoV-2 Mpro N142A) was 58.18 ± 0.03 (5.56) ℃ and 57.22 ± 0.07 (4.60) ℃ and 56.43 ± 0.24 (3.81) ℃ and the Tm value (SARS-CoV-2 PLpro Y251A) was 47.78 ± 0.39 (2.41) ℃ and 46.46 ± 0.07 (1.09) ℃. The “△Tm” value (SARS-CoV-2 PLpro Y251A) was 47.78 ± 0.39 (2.41) ℃ and 46.46 ± 0.07 (1.09) ℃, the Tm value (SARS-CoV-2 Mpro F3A) was 53.05 ± 0.12 (1.05) ℃ and 52.84 ± 0.19 (0.84) ℃ and 53.05 ± 0.03 (1.05) ℃ and the “△Tm” value (SARS-CoV-2 Mpro F3A) was 53.05 ± 0.12 (1.05) ℃ and 52.84 ± 0.19 (0.84) ℃ and 53.05 ± 0.03 (1.05) ℃. For the same compound, the Tm value (SARS-CoV-2 PLpro T257A) was 47.76 ± 0.27 (4.16) ℃, the “△Tm” value (SARS-CoV-2 PLpro T257A) was 47.76 ± 0.27 (4.16) ℃ and the Tm value (SARS-CoV-2 PLpro Y273A) was 51.09 ± 0.23 (-0.85) ℃ and 50.59 ± 0.10 (-1.35) ℃ and 51.21 ± 0.00 (-0.73) ℃. For the same compound, the “△Tm” value (SARS-CoV-2 PLpro Y273A) was 51.09 ± 0.23 (-0.85) ℃ and 50.59 ± 0.10 (-1.35) ℃ and 51.21 ± 0.00 (-0.73) ℃, the Tm value (SARS-CoV-2 PLpro Y264A) was 46.21 ± 0.86 (0.01) ℃ and 45.93 ± 0.03 (-0.27) ℃ and 46.48 ± 0.43 (0.28) ℃ and the “△Tm” value (SARS-CoV-2 PLpro Y264A) was 46.21 ± 0.86 (0.01) ℃ and 45.93 ± 0.03 (-0.27) ℃ and 46.48 ± 0.43 (0.28) ℃. The Tm value (SARS-CoV-2 PLpro D164A) was 44.58 ± 0.62 (2.03) ℃ and 45.84 ± 0.11 (3.29) ℃ and 46.83 ± 0.21 (4.28) ℃, the “△Tm” value (SARS-CoV-2 PLpro D164A) was 44.58 ± 0.62 (2.03) ℃ and 45.84 ± 0.11 (3.29) ℃ and 46.83 ± 0.21 (4.28) ℃ and the Tm value (SARS-CoV-2 PLpro K254A) was 46.61 ± 0.16 (3.31) ℃ and 46.23 ± 0.29 (2.93) ℃. The “△Tm” value (SARS-CoV-2 PLpro K254A) was 46.61 ± 0.16 (3.31) ℃ and 46.23 ± 0.29 (2.93) ℃, the Tm value (SARS-CoV-2 Mpro F291A) was 61.29 ± 0.01 (-0.08) ℃ and 61.37 ± 0.01 (0.00) ℃ and 61.44 ± 0.01 (0.07) ℃ and the “△Tm” value (SARS-CoV-2 Mpro F291A) was 61.29 ± 0.01 (-0.08) ℃ and 61.37 ± 0.01 (0.00) ℃ and 61.44 ± 0.01 (0.07) ℃. For the same compound, the Tm value (SARS-CoV-2 PLpro R166A) was 50.86 ± 0.55 (3.18) ℃, the “△Tm” value (SARS-CoV-2 PLpro R166A) was 50.86 ± 0.55 (3.18) ℃ and the Tm value (SARS-CoV-2 Mpro K5A) was 47.98 ± 0.07 (0.63) ℃. For the same compound, the “△Tm” value (SARS-CoV-2 Mpro K5A) was 47.98 ± 0.07 (0.63) ℃, the Tm value (SARS-CoV-2 PLpro V303A) was 52.24 ± 0.13 (5.12) ℃ and the “△Tm” value (SARS-CoV-2 PLpro V303A) was 52.24 ± 0.13 (5.12) ℃. The Tm value (SARS-CoV-2 PLpro L253A) was 50.09 ± 0.49 °C, the Tm value (SARS-CoV-2 Mpro Y126A) was 47.88 ± 0.22 (1.58) ℃ and the “△Tm” value (SARS-CoV-2 Mpro Y126A) was 47.88 ± 0.22 (1.58) ℃. For the same compound, the Tm value (SARS-CoV-2 PLpro E252A) was 44.10 ± 0.20 (0.75) ℃ and 45.88 ± 0.48 (2.53) ℃ and 47.86 ± 0.13 (4.51) ℃, the “△Tm” value (SARS-CoV-2 PLpro E252A) was 44.10 ± 0.20 (0.75) ℃ and 45.88 ± 0.48 (2.53) ℃ and 47.86 ± 0.13 (4.51) ℃ and the Tm value (SARS-CoV-2 PLpro F258A) was 47.68 ± 0.06 °C.
